Among the data in PubChem BioAssay AID743464 (Broad Institute, 2014) are COX8b expression increase and AC40 values, retold here.

The source made the active and inactive calls.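 The calls were made as follows: active = fitted curve of COX8b expression increase reaching level 40 at or below the top valid tested dose; inconclusive = flat fit between 30 and 70, or poor fit; inactive = the rest.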

System in the first assay: not listed separately
The assay can be described thus: change in PGC-1a target gene COX8b expression, dose response, C2C12 myotubes, RT-qPCR, cherry-pick (AID 743464). The note with it: C2C12 myotubes, COX8b mRNA qPCR (delta-delta-Ct); at 6.8 µM (top of the series). In general terms: Quantitative PCR measures a nucleic acid by following its amplification.
Take `N#Cc1cc(Oc2cccc3cccnc23)c(-n2nnc3ccccc32)cc1C#N`: the COX8b expression increase is -21.9 unspecified (inactive).

Still in this assay, the particulars now being: C2C12 myotubes, COX8b mRNA qPCR (delta-delta-Ct); at 19.5 µM (top of the series).
As for `COc1ccccc1C#Cc1ccc([C@H]2[C@H](C#N)N(C(=O)C3CCCC3)[C@H]2CO)cc1`, the COX8b expression increase was 21.2 unspecified (inactive). As for `Cc1cc(C)cc(OC(=O)CS(=O)c2ccc(C(F)(F)F)cc2[N+](=O)[O-])c1` (centres undefined), the COX8b expression increase is -6.23 unspecified (inactive). Still for that read-out and setting: to `C#CCN(C[C@@H]1[C@@H](OC(=O)NCCCCCC)[C@@H](OC(=O)NCCCCCC)Cn2c(=O)ccc(=O)n21)S(=O)(=O)c1ccc(C)cc1` belongs 4.23 unspecified (inactive); to `O=c1cc(CSc2ccccn2)[nH]c(=O)[nH]1`, -6.81 unspecified (inactive); to `CCN1CCN(Cc2ccc(NC(=O)c3ccc(C)c(NC(=O)c4c[nH]c5cc(C(F)(F)F)ccc5c4=O)c3)cc2C(F)(F)F)CC1`, 15.7 unspecified (inactive). Same read-out and setting: to `CC[C@H](C)[C@H](NC(=O)c1ccc(Cl)cc1)C(=O)OCC(=O)c1ccc2c(c1)NC(=O)CO2` belongs -1.89 unspecified (inactive); to `Cc1ccccc1-n1nnnc1Sc1nnnn1-c1ccccc1`, 9.68 unspecified (inactive); to `Nc1ncnc(NCc2ccc(F)cc2)c1[N+](=O)[O-]`, 1.72 unspecified (inactive). On the same count and under the same terms, to `CCN(CC(=O)NCc1ccc(Cl)cc1)C(=O)CSCC(=O)Nc1ccc(C)cc1` belongs 0.86 unspecified (inactive). As for `CS(=O)c1nc(-c2ccc(Br)cc2)cc(-c2ccccc2)c1C#N` (centres undefined), the COX8b expression increase is 6.29 unspecified (inactive). Still for that read-out and setting: to `C[C@H](CO)N1C[C@H](C)[C@@H](CN(C)C(=O)C2CCCCC2)Oc2cc(C#Cc3ccncc3)ccc2S1(=O)=O` belongs 9.62 unspecified (inactive). In the case of `CCN1CCN(Cc2ccc(NC(=O)c3cc(NC(=O)c4cncc(-c5ccc(C#N)cc5)c4)cc(OC)c3)cc2C(F)(F)F)CC1`, the COX8b expression increase was -3 unspecified (inactive).

Regarding `Cc1nc2ccccn2c1C(=O)/C=C/c1ccc(F)cc1`, the COX8b expression increase was -3.59 unspecified (inactive). The same measure, in the same setting: the result for `O=C(C[C@H]1CC[C@@H](NC(=O)c2ccccc2)[C@H](CO)O1)Nc1ccc(-c2ccccc2)cc1` reads -12.4 unspecified (inactive); that for `Cc1ccc(-c2nc(NC(=O)c3nn(C)cc3[N+](=O)[O-])sc2C)cc1`, 8.83 unspecified (inactive).

Take `COc1ccc(C(=O)Nc2cccc(NC(=O)c3ccc(OC)c(OC)c3)n2)cc1OC`: the COX8b expression increase was 7.85 unspecified (inactive). Same read-out and setting: to `CC1=C(Cl)C2=NS(=O)(=O)CCN2C=C1Cl` belongs 6.22 unspecified (inactive).

On to `COC(=O)c1nn(-c2ccccc2)ccc1=O`, for which the COX8b expression increase is 3.82 unspecified (inactive).

Regarding `OC(c1cc(C(F)(F)F)nc2c(C(F)(F)F)cccc12)C1CCCCN1` (centres undefined), the COX8b expression increase was 1.68 unspecified (inactive). On the same count and under the same terms, to `Cn1nnnc1SCC(=O)NCc1cccc(C(=O)O)c1` belongs -7.14 unspecified (inactive). Same read-out and setting: to `O=c1[nH]c2ccccc2n1C1CCN(C(c2cc3ccccc3o2)c2nnnn2Cc2ccccc2)CC1` (centres undefined) belongs 12.6 unspecified (inactive). In the case of `Cc1nc(Nc2ccc(S(N)(=O)=O)cc2)sc1C(=O)Nc1ccccc1`, the COX8b expression increase is -1.19 unspecified (inactive).

On to `COCCSc1ccccc1C(=O)Nc1cc(C)on1`, for which the COX8b expression increase is 3.36 unspecified (inactive).

As to `Cc1cc2c(c(/C=C/C(=O)c3ccccc3)c1)OC1(C=C2)Oc2ccccc2C(=O)N1C` (centres undefined), the COX8b expression increase was 21.7 unspecified (inactive). For the compound `C[C@H]1CN([C@@H](C)CO)S(=O)(=O)c2ccc(-c3ccccc3)cc2O[C@@H]1CN(C)Cc1cccc(F)c1`, the COX8b expression increase is -3.3 unspecified (inactive). The same measure, in the same setting: the result for `CCOc1cc(CNC2CCCC2)cc(Cl)c1OCc1ccc(F)cc1` reads 0.737 unspecified (inactive). Still for that read-out and setting: the result for `C[C@H](CO)N1C[C@H](C)[C@@H](CN(C)Cc2cccnc2)Oc2cc(C#CC3CCCCC3)ccc2S1(=O)=O` reads 0.89 unspecified (inactive).

The subject of a further assay is C2C12 myotubes, COX8b mRNA qPCR (delta-delta-Ct). The assay is described as above.
Settings: not given
As to `O=C(Nc1ccc(N2CCN(Cc3ccccc3F)CC2)cc1)c1ccc([N+](=O)[O-])o1`, the AC40 was 10.4 µM. Same read-out and setting: to `Cc1ccc(S(=O)(=O)N(C)C[C@@H]2Oc3cc(C#Cc4ccncc4)ccc3S(=O)(=O)N([C@@H](C)CO)C[C@H]2C)cc1` belongs > 19.5 µM (inactive); to `O=C(Nc1ccc(C(F)(F)F)cc1)N1C[C@@H]2N[C@H](C1)C2c1ccc(-c2ccccc2)cc1` (some centres undefined), > 19.5 µM (inactive); to `Cc1cccc(NC(=O)CNC(=O)Cn2ncc(Cl)c(Cl)c2=O)c1C`, > 19.5 µM (inactive).

In the case of `COc1ccccc1C#Cc1ccc2c(c1)O[C@@H](CN(C)Cc1cccnc1)[C@H](C)CN([C@H](C)CO)S2(=O)=O`, the AC40 was > 19.5 µM (inactive). Consider `Cc1ccc(Cn2ncc(Cl)c(Cl)c2=O)cc1`, for which the AC40 was > 19.5 µM (inactive).

Take `CCOC(=O)c1c2c(n(C)c1C)C(=O)C(=O)c1ccc(Br)cc1-2`: the AC40 was 16.8 µM. The same measure, in the same setting: the result for `N#Cc1ccc(-c2ccc(C3[C@@H]4CN(S(=O)(=O)c5ccc(F)cc5)C[C@H]3N4)cc2)cc1` (some centres undefined) reads > 19.5 µM (inactive). For `Cc1ccc(S(=O)(=O)N(C)C[C@H]2Oc3cc(C#Cc4ccncc4)ccc3S(=O)(=O)N([C@H](C)CO)C[C@H]2C)cc1`, the AC40 is 19.3 µM. The same measure, in the same setting: the result for `COc1ccccc1-c1ccc([C@@H]2[C@@H]3CN(S(=O)(=O)c4ccc(-c5ccccc5)cc4)C[C@H]2N3)cc1` reads > 19.5 µM (inactive); that for `CCCN(CC)c1ncnc2[nH]ncc12`, 17.5 µM. The same measure, in the same setting: to `CCn1nc(/C=C/c2ccccc2)nc2c(=O)n(C)c(=O)nc1-2` belongs 0.78 µM; to `O=C(Nc1cccc(F)c1)N1CC(=O)N2[C@@H](CO)[C@@H](c3ccc(C#Cc4cccnc4)cc3)[C@@H]2C1`, > 19.5 µM (inactive); to `Cc1ccc(S(=O)(=O)N(C)C[C@@H]2Oc3cc(C#Cc4ccncc4)ccc3S(=O)(=O)N([C@H](C)CO)C[C@H]2C)cc1`, > 19.5 µM (inactive). The same measure, in the same setting: the result for `Cc1ccc(-c2ccc(C3[C@@H]4CN(C(=O)Nc5ccc(C(F)(F)F)cc5)C[C@H]3N4)cc2)cc1` (some centres undefined) reads > 19.5 µM (inactive). In the case of `C=CS(=O)(=O)N(Cc1ccccc1Br)[C@H](CO)Cc1ccccc1`, the AC40 is > 19.5 µM (inactive).
